{"source": "patent US20230284627A1", "about": "“ANTIMICROBIAL COMPOSITIONS AND METHODS OF USE AND FOR MAKING SAME” (MIG USA, LLC, priority 2020, published 2023)", "system": "Escherichia coli ATCC-25922, Klebsiella pneumonia ATCC-4352, Canadida albicans ATCC-10231, Pseudomonas aeruginosa ATCC-9027, Staphylococcus aureus ATCC-6538", "experiment": "Lawn-spray assay of AM635 disinfectant spray in SDS (Example 5)", "type": "cell-based", "conditions": "portions of the untreated area were also clear of bacterial growth", "procedure": "The efficacy of 0.5-2% SDS solutions (in DiH2O)+0.1-10% Silver 1-Methyl imidazole were tested by performing a lawn-spray assay. The Silver 1-Methylimidazole Complex 635 (AM635) disinfectant sprays in SDS were prepared as described in Example 4. Briefly, a lawn of bacteria/yeast from a newly grown broth culture were inoculated onto their preferred agar media by dipping a swab into each broth, fully wetting the swab end, then swiping the swab back-and-forth from the top to the bottom of the plate, then turning the plate for a ¼ turn and re-streaking from top to bottom again. This technique ensures for total coverage of the inoculating bacteria/yeast across the face of the agar media. The dish was then opened and a paper towel placed over the top of the plate to cover only half of the surface while not touching the agar surface, so that the other half is exposed to the air. This exposed half was then treated with 2-pumps from a spray bottle containing the AM635 in SDS composition, ensuring that the exposed half of the plate was saturated by the test product. Each plate was treated using the same 2-pump criteria. All plates were then incubated “agar-down” overnight at 37° C. to allow the bacteria to fully grow (at 30° C. for yeast). […]", "data": [{"smiles": "CCCCCCCCCCCCOS(=O)(=O)[O-].[Na+]", "note": "[SDS, Sodium Dodecyl Sulfate]", "values": [{"measurement": "effect on untreated area of lawn plate", "value": "hypermigration effect"}]}]}
